Our source for the Ki values is ChEMBL document CHEMBL1150979, “DERIVATIVES OF 4-AMINO-PYRIDINE AS SELECTIVE THROMBIN INHIBITORS” (Bioorg Med Chem Lett, 1997).

The target in one test is Plasminogen (Homo sapiens, UniProt P00747). Put plainly: Tested for the Inhibition of the catalytic activity of human plasmin at 25 degree C and pH 7.5.
The target of another test is T1, Serine protease 1 (Bos taurus, UniProt P00760).
T1 sequence (P00760 whole entry): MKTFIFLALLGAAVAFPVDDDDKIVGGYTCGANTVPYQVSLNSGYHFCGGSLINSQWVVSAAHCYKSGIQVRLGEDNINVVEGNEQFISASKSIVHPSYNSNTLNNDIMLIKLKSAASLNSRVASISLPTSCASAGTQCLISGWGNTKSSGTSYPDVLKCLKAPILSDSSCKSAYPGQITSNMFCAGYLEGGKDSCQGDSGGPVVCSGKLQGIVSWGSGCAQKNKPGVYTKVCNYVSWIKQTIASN
Description: Tested for the Inhibition of the catalytic activity of bovine trypsin at 25 degree C and pH 7.5.

The target in another test is Prothrombin (Homo sapiens, UniProt P00734).

Bounds are passed on as bounds.

Sequence of Plasminogen (P00747 97-580 limits assumed): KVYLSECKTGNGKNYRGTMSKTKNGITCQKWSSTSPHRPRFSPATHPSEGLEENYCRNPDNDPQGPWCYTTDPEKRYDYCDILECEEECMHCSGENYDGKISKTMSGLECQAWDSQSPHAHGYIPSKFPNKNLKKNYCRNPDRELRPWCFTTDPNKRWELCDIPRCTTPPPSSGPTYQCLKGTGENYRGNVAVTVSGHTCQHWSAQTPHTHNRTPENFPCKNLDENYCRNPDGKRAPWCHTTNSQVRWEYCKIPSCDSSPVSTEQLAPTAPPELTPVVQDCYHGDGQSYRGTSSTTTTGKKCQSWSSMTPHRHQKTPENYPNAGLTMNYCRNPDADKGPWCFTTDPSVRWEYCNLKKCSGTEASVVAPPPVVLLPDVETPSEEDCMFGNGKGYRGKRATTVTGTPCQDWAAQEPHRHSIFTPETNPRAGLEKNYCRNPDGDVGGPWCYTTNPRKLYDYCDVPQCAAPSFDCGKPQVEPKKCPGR
Sequence of Plasminogen (P00747 581-810 limits assumed): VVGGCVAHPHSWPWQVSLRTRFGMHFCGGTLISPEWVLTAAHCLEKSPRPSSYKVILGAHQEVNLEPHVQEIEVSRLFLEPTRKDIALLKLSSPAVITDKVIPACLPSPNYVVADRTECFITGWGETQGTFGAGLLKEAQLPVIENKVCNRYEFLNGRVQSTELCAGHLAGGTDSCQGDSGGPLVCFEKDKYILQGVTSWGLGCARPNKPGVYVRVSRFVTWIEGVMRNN
Description for Prothrombin: Tested for the Inhibition of the catalytic activity of human Thrombin at 25 degree C and pH 7.5.

A word on the Ki: it is the equilibrium dissociation constant of an inhibitor or competing ligand from its target. A low value points to higher affinity. For `OCCNc1ccncc1`, the Ki on Plasminogen, on Serine protease 1 and on Prothrombin was over 500 µM in each case.

In the case of `c1ccc(OCCNc2ccncc2)cc1`, the values for the inhibitory constant (Ki) on Plasminogen, at Serine protease 1 and on Prothrombin were over 500 µM, over 500 µM and 120 µM, respectively.

Turning to `O=C(CNS(=O)(=O)c1ccccc1)N[C@H](CCNc1ccncc1)C(=O)N1CCCCC1`, the Ki on Plasminogen is over 500 µM; at Serine protease 1 it was over 500 µM; at Prothrombin it was 10 µM.

`N=C(N)c1ccc(COc2cccc(CCNS(=O)(=O)c3ccc(Cl)cc3)c2)cc1`: the Ki was found to be 34 µM at Plasminogen, 1.7 µM on Serine protease 1 and 1.5 µM at Prothrombin.

In the case of `O=C(CNS(=O)(=O)c1ccc(Cl)cc1)N[C@H](CCNc1ccncc1)C(=O)N1CCCCC1`, the Ki at Plasminogen was over 500 µM; at Serine protease 1, over 500 µM; at Prothrombin, 2 µM.

For the molecule `O=C(CNS(=O)(=O)c1ccc2ccccc2c1)N[C@@H](CCNc1ccncc1)C(=O)N1CCCCC1`, the results for the Ki on Plasminogen, on Serine protease 1 and on Prothrombin were over 500 µM, over 500 µM and 300 µM, respectively.

Turning to `O=S(=O)(Nc1cccc(OCCNc2ccncc2)c1)c1ccc2ccccc2c1`, the Ki was over 500 µM on Plasminogen, over 500 µM on Serine protease 1 and 7 µM on Prothrombin.

As to `O=S(=O)(Nc1cccc(OCCNc2ccncc2)c1)c1ccccc1`, the Ki is over 500 µM at Plasminogen, over 500 µM at Serine protease 1 and 0.3 µM on Prothrombin.

As for `O=S(=O)(Nc1cccc(OCCNc2ccncc2)c1)c1ccc(Cl)cc1`, the Ki on Plasminogen is over 500 µM; on Serine protease 1, over 500 µM; at Prothrombin it was 0.7 µM.

Consider `CN(c1cccc(OCCNc2ccncc2)c1)S(=O)(=O)c1ccccc1`, for which the figures for the Ki at Plasminogen, on Serine protease 1 and on Prothrombin were over 500 µM, over 500 µM and 0.07 µM, respectively.

As to `Cc1cccc(OCCNc2ccncc2)c1`, the Ki at Plasminogen is over 500 µM; on Serine protease 1 it was over 500 µM; at Prothrombin, 30 µM.

Turning to `O=C(CNS(=O)(=O)c1ccc2ccccc2c1)N[C@H](CCNc1ccncc1)C(=O)N1CCCCC1`, the Ki at Plasminogen was over 500 µM; on Serine protease 1, over 500 µM; at Prothrombin, 0.2 µM.

Turning to `O=S(=O)(NCCc1cccc(OCCNc2ccncc2)c1)c1ccc(Cl)cc1`, the Ki at Plasminogen is over 500 µM; at Serine protease 1, over 500 µM; on Prothrombin, 2.8 µM.

Consider `Nc1ccncc1` [DALFAMPRIDINE], for which the Ki at Plasminogen, at Serine protease 1 and at Prothrombin was over 2000 µM in each case.
